# Data as given in PubChem BioAssay (NCI).
#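 Grown in 96-well plates, cells were treated for 48 hours with each compound at five concentrations. Insufficient inhibition: endpoint recorded as highest concentration tested. Here, GI50 denotes the concentration required for 50% inhibition of growth. TGI is the concentration that stops growth completely.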 Where a SMILES comes first, the peptide text is derived from it. The star is where a group is joined. OBn = c1ccc(CO*)cc1
# Assays:
# Test in all cases: NCI-60 cell line screen, 48 h
# UO-31 renal = test system: UO-31 renal
# K-562 leukemia = test system: K-562 leukemia
# NCI-H460 lung = test system: NCI-H460 lung
# SW-620 colon = test system: SW-620 colon
# COLO 205 colon = test system: COLO 205 colon
# T-47D breast = test system: T-47D breast
# SK-MEL-5 melanoma = test system: SK-MEL-5 melanoma
# ACHN renal = test system: ACHN renal
# RPMI-8226 leukemia = test system: RPMI-8226 leukemia
# MCF7 breast = test system: MCF7 breast
# 786-0 renal = test system: 786-0 renal
# HT29 colon = test system: HT29 colon
# KM12 colon = test system: KM12 colon
# HCT-15 colon = test system: HCT-15 colon
# CCRF-CEM leukemia = test system: CCRF-CEM leukemia
# HL-60(TB) leukemia = test system: HL-60(TB) leukemia
# SF-268 CNS = test system: SF-268 CNS
# MDA-MB-435 = test system: MDA-MB-435
# CAKI-1 renal = test system: CAKI-1 renal
# SF-295 CNS = test system: SF-295 CNS
# NCI-H522 lung = test system: NCI-H522 lung
# OVCAR-3 ovarian = test system: OVCAR-3 ovarian
# MDA-N = test system: MDA-N
# OVCAR-8 ovarian = test system: OVCAR-8 ovarian
# SN12C renal = test system: SN12C renal
# A549 NSCLC = test system: A549 NSCLC
# MOLT-4 leukemia = test system: MOLT-4 leukemia
# M14 melanoma = test system: M14 melanoma
# HCT-116 colon = test system: HCT-116 colon
# IGROV1 ovarian = test system: IGROV1 ovarian
# SK-OV-3 ovarian = test system: SK-OV-3 ovarian
# RXF 393 renal = test system: RXF 393 renal
# SK-MEL-28 melanoma = test system: SK-MEL-28 melanoma
# NCI-H23 lung = test system: NCI-H23 lung
# SNB-75 CNS = test system: SNB-75 CNS
# MALME-3M melanoma = test system: MALME-3M melanoma
# SR leukemia = test system: SR leukemia
# EKVX NSCLC = test system: EKVX NSCLC
# UACC-257 melanoma = test system: UACC-257 melanoma
# MDA-MB-231 breast = test system: MDA-MB-231 breast
# PC-3 prostate = test system: PC-3 prostate
# TK-10 renal = test system: TK-10 renal
# UACC-62 melanoma = test system: UACC-62 melanoma
# DU-145 prostate = test system: DU-145 prostate
# HOP-62 NSCLC = test system: HOP-62 NSCLC
# HCC-2998 colon = test system: HCC-2998 colon
# SF-539 CNS = test system: SF-539 CNS
# BT-549 breast = test system: BT-549 breast
# OVCAR-5 ovarian = test system: OVCAR-5 ovarian
# SK-MEL-2 melanoma = test system: SK-MEL-2 melanoma
# OVCAR-4 ovarian = test system: OVCAR-4 ovarian
# HS 578T breast = test system: HS 578T breast
# NCI-H226 lung = test system: NCI-H226 lung
# A498 renal = test system: A498 renal
# U251 CNS = test system: U251 CNS
# HOP-92 NSCLC = test system: HOP-92 NSCLC
# SNB-19 CNS = test system: SNB-19 CNS
# LOX IMVI melanoma = test system: LOX IMVI melanoma
# NCI/ADR-RES ovarian = test system: NCI/ADR-RES ovarian
structure (smiles),measurement,setting,value
O=C(O)CC(NC(=O)CP(=O)(O)O)C(=O)O.[NH-]C1CCCCC1[NH-].[Pt+2] (stereo not given),GI50,UO-31 renal,41.3 µM
same,GI50,K-562 leukemia,5.38 µM
same,GI50,NCI-H460 lung,42.2 µM
same,GI50,SW-620 colon,19.6 µM
same,GI50,COLO 205 colon,51 µM
same,GI50,T-47D breast,94.7 µM
same,GI50,SK-MEL-5 melanoma,70.2 µM
same,GI50,ACHN renal,84.7 µM
same,GI50,RPMI-8226 leukemia,5.93 µM
same,GI50,MCF7 breast,75.8 µM
same,GI50,786-0 renal,52 µM
same,GI50,HT29 colon,56.3 µM
same,GI50,KM12 colon,84.1 µM
same,GI50,HCT-15 colon,67.9 µM
same,GI50,CCRF-CEM leukemia,18 µM
same,GI50,HL-60(TB) leukemia,40.2 µM
same,GI50,SF-268 CNS,78.8 µM
same,GI50,MDA-MB-435,75.9 µM
same,GI50,CAKI-1 renal,96.2 µM
same,GI50,SF-295 CNS,56.3 µM
same,GI50,NCI-H522 lung,60.8 µM
same,GI50,OVCAR-3 ovarian,88.3 µM
same,GI50,MDA-N,70.5 µM
same,GI50,OVCAR-8 ovarian,74.4 µM
same,GI50,SN12C renal,96.6 µM
same,GI50,A549 NSCLC,56.4 µM
same,GI50,MOLT-4 leukemia,0.675 µM
same,TGI,MOLT-4 leukemia,31.4 µM
same,GI50,M14 melanoma,77.2 µM
same,GI50,HCT-116 colon,30.4 µM
Clc1ccc(/C=N/Nc2nnc3c4ccccc4c4ncccc4c3n2)cc1,TGI,K-562 leukemia,> 10 µM
same,TGI,IGROV1 ovarian,> 10 µM
same,TGI,SK-OV-3 ovarian,> 10 µM
same,TGI,SW-620 colon,> 10 µM
same,TGI,RXF 393 renal,> 10 µM
same,TGI,COLO 205 colon,> 10 µM
same,TGI,SK-MEL-28 melanoma,> 10 µM
same,TGI,NCI-H23 lung,> 10 µM
same,TGI,T-47D breast,> 10 µM
same,TGI,SNB-75 CNS,> 10 µM
same,TGI,SK-MEL-5 melanoma,> 10 µM
same,TGI,MALME-3M melanoma,> 10 µM
same,TGI,RPMI-8226 leukemia,> 10 µM
same,TGI,MCF7 breast,> 10 µM
same,TGI,786-0 renal,> 10 µM
same,TGI,SR leukemia,> 10 µM
same,TGI,EKVX NSCLC,> 10 µM
same,TGI,HT29 colon,> 10 µM
same,TGI,KM12 colon,> 10 µM
same,TGI,HCT-15 colon,> 10 µM
same,TGI,UACC-257 melanoma,> 10 µM
same,TGI,HL-60(TB) leukemia,> 10 µM
same,TGI,SF-268 CNS,> 10 µM
same,TGI,MDA-MB-231 breast,> 10 µM
same,TGI,CAKI-1 renal,> 10 µM
same,TGI,SF-295 CNS,> 10 µM
same,TGI,PC-3 prostate,> 10 µM
same,TGI,TK-10 renal,> 10 µM
same,TGI,MDA-N,> 10 µM
same,TGI,UACC-62 melanoma,> 10 µM
same,TGI,OVCAR-8 ovarian,> 10 µM
same,TGI,DU-145 prostate,> 10 µM
same,TGI,SN12C renal,> 10 µM
same,TGI,A549 NSCLC,> 10 µM
same,TGI,HOP-62 NSCLC,> 10 µM
same,TGI,MOLT-4 leukemia,> 10 µM
same,TGI,HCC-2998 colon,> 10 µM
same,TGI,M14 melanoma,> 10 µM
CC(=O)NC(C(=O)N1CCCC1C(=O)OCc1ccccc1)C(C)C (stereo not drawn) (Ac-Val-Pro-OBn; configuration not given here),GI50,CCRF-CEM leukemia,52 µg/mL
same,GI50,MDA-N,80.7 µg/mL
COc1cc2c(cc1OC)-c1ccc3cc4c(cc3c1N(CCN(C)C)C2)OCO4,GI50,SF-539 CNS,0.352 µM
same,TGI,SF-539 CNS,2.53 µM
same,GI50,UO-31 renal,1.77 µM
same,TGI,UO-31 renal,5.77 µM
same,GI50,K-562 leukemia,0.262 µM
same,TGI,K-562 leukemia,1.57 µM
same,GI50,BT-549 breast,1.15 µM
same,TGI,BT-549 breast,11.9 µM
same,GI50,OVCAR-5 ovarian,1.53 µM
same,TGI,OVCAR-5 ovarian,5.23 µM
same,GI50,IGROV1 ovarian,0.943 µM
same,TGI,IGROV1 ovarian,3.25 µM
same,GI50,SK-OV-3 ovarian,0.518 µM
same,TGI,SK-OV-3 ovarian,3.2 µM
same,GI50,NCI-H460 lung,0.256 µM
same,TGI,NCI-H460 lung,1.2 µM
same,GI50,SW-620 colon,0.522 µM
same,TGI,SW-620 colon,2.58 µM
same,GI50,RXF 393 renal,0.848 µM
same,TGI,RXF 393 renal,2.89 µM
same,GI50,COLO 205 colon,0.37 µM
same,TGI,COLO 205 colon,1.92 µM
same,GI50,SK-MEL-28 melanoma,3.04 µM
same,TGI,SK-MEL-28 melanoma,17.3 µM
same,GI50,NCI-H23 lung,0.393 µM
same,TGI,NCI-H23 lung,2.96 µM
same,GI50,T-47D breast,0.21 µM
same,TGI,T-47D breast,3.48 µM
same,GI50,SNB-75 CNS,0.35 µM
same,TGI,SNB-75 CNS,6 µM
same,GI50,SK-MEL-5 melanoma,1.39 µM
same,TGI,SK-MEL-5 melanoma,3.01 µM
same,GI50,ACHN renal,0.588 µM
same,TGI,ACHN renal,3.1 µM
same,GI50,MALME-3M melanoma,1.15 µM
same,TGI,MALME-3M melanoma,9.45 µM
same,GI50,RPMI-8226 leukemia,0.221 µM
same,TGI,RPMI-8226 leukemia,1.36 µM
same,GI50,SK-MEL-2 melanoma,3.36 µM
same,TGI,SK-MEL-2 melanoma,16.7 µM
same,GI50,OVCAR-4 ovarian,0.911 µM
same,TGI,OVCAR-4 ovarian,13.3 µM
same,GI50,MCF7 breast,0.122 µM
same,TGI,MCF7 breast,5.98 µM
same,GI50,786-0 renal,0.442 µM
same,TGI,786-0 renal,1.99 µM
same,GI50,SR leukemia,0.0524 µM
same,TGI,SR leukemia,2.63 µM
same,GI50,EKVX NSCLC,1.33 µM
same,TGI,EKVX NSCLC,13.7 µM
same,GI50,HT29 colon,0.265 µM
same,TGI,HT29 colon,1.64 µM
same,GI50,HS 578T breast,1.68 µM
same,TGI,HS 578T breast,13.7 µM
same,GI50,KM12 colon,0.97 µM
same,TGI,KM12 colon,2.47 µM
same,GI50,HCT-15 colon,4.09 µM
same,TGI,HCT-15 colon,17.6 µM
same,GI50,CCRF-CEM leukemia,0.148 µM
same,TGI,CCRF-CEM leukemia,3.73 µM
same,GI50,UACC-257 melanoma,2.43 µM
same,TGI,UACC-257 melanoma,16.5 µM
same,GI50,HL-60(TB) leukemia,0.25 µM
same,TGI,HL-60(TB) leukemia,0.681 µM
same,GI50,SF-268 CNS,0.214 µM
same,TGI,SF-268 CNS,2.41 µM
same,GI50,NCI-H226 lung,0.772 µM
same,TGI,NCI-H226 lung,2.52 µM
same,GI50,A498 renal,0.723 µM
same,TGI,A498 renal,2.53 µM
same,GI50,U251 CNS,0.215 µM
same,TGI,U251 CNS,1.23 µM
same,GI50,HOP-92 NSCLC,0.859 µM
same,TGI,HOP-92 NSCLC,7.94 µM
same,GI50,MDA-MB-231 breast,1.63 µM
same,TGI,MDA-MB-231 breast,5.31 µM
same,TGI,MDA-MB-435,17.6 µM
same,GI50,CAKI-1 renal,0.596 µM
same,TGI,CAKI-1 renal,11.4 µM
same,GI50,SF-295 CNS,0.4 µM
same,TGI,SF-295 CNS,8.28 µM
same,GI50,SNB-19 CNS,0.4 µM
same,TGI,SNB-19 CNS,11.9 µM
same,GI50,PC-3 prostate,0.411 µM
same,TGI,PC-3 prostate,6.06 µM
same,GI50,NCI-H522 lung,0.188 µM
same,TGI,NCI-H522 lung,1.56 µM
same,GI50,TK-10 renal,2.03 µM
same,TGI,TK-10 renal,7.39 µM
same,GI50,OVCAR-3 ovarian,0.593 µM
same,TGI,OVCAR-3 ovarian,2.28 µM
same,GI50,UACC-62 melanoma,0.403 µM
same,TGI,UACC-62 melanoma,5.4 µM
same,GI50,OVCAR-8 ovarian,0.51 µM
same,TGI,OVCAR-8 ovarian,3.44 µM
same,GI50,DU-145 prostate,0.377 µM
same,TGI,DU-145 prostate,8.76 µM
same,GI50,SN12C renal,0.35 µM
same,TGI,SN12C renal,4.4 µM
same,GI50,LOX IMVI melanoma,0.271 µM
same,TGI,LOX IMVI melanoma,1.32 µM
same,GI50,NCI/ADR-RES ovarian,10.9 µM
same,TGI,NCI/ADR-RES ovarian,45.6 µM
same,GI50,A549 NSCLC,0.694 µM
same,TGI,A549 NSCLC,2.13 µM
same,GI50,HOP-62 NSCLC,0.373 µM
same,TGI,HOP-62 NSCLC,3.97 µM
same,GI50,MOLT-4 leukemia,0.158 µM
same,TGI,MOLT-4 leukemia,2.57 µM
same,GI50,HCC-2998 colon,1.29 µM
same,TGI,HCC-2998 colon,2.87 µM
same,GI50,M14 melanoma,0.43 µM
same,TGI,M14 melanoma,4.85 µM
same,GI50,HCT-116 colon,0.411 µM
same,TGI,HCT-116 colon,1.83 µM
